# Non-standard residues stand in square brackets, D forms with d. Residues, ends and D or L forms follow the SMILES beside them. *: point of attachment. Sta = CC(C)C[C@H](N)[C@@H](O)CC(=O)O; Isovaleryl = CC(C)CC(=O)*
# Assay: Cyclization of 3H-GGPP by purified elisabethatriene cyclase-containing chromatography fractions
# Type: biochemical, Pseudopterogorgia elisabethae
# Conditions: judged by the formation of pseudopterosins
# Procedure: An example of a method for cyclizing GGPP to elisabethatriene includes the steps of providing purified elisabethatriene cyclase and contacting the GGPP substrate with the purified elisabethatriene cyclase under reaction conditions that result in the production of elisabethatriene. Any suitable reaction conditions that result in the production of elisabethatriene may be used. For example, ^3H-GGPP (1 μCi) is incubated with a suitable amount of purified elisabethatriene cyclase at 27° C. for 1-4 hours.
# To purify enzymatically active elisabethatriene cyclase, CFE samples were subjected to DEAE ion-exchange chromatography, phenyl sepharose chromatography, hydroxyapatite chromatography, and UNO™ [2-Propen-1-aminium, N,N,-dimethyl-N-2-propenyl-, chloride, polymer with 1,4-bis(1-oxo-2-propenyl)piperazine and 2-methyl-2-propenamide] ion exchange chromatography (Bio-Rad Laboratories, Hercules, Calif.). Active fractions were obtained in all cases. Fractions resulting from these purification techniques were concentrated by ultracentrifugation, and then 0.5-100 μg (brought up to a total volume of 500 μl) was assayed for enzymatic activity by incubation with 1 μCi [1]^3H-GGPP for 1 hour in 20 mM Tris buffer (pH 7.7, 3 mM EDTA, 5 mM β-mercaptoethanol, 5 mM MgCl2). Samples were quenched, extracted with 500 μl hexanes and partially purified by passing through a small silica gel pasteur pipette column. Elisabethatriene was then added as “cold carrier” and incubations were purified by high-performance liquid chromatography (HPLC). […] Radioactivity in HPLC fractions was quantified by scintillation counting.
# Using elisabethatriene cyclase purified by column chromatography as described in Example 1, GGPP was cyclized to elisabethatriene. To carry out the reaction, incubations were performed by incubating ^3H-GGPP(1 μCi) with purified elisabethatriene cyclase-containing fractions from chromatography columns at 27° C. for 1-4 hours.
row,effect of adding protease inhibitors on enzymatic activity of the fractions,Structure (SMILES)
1,did not increase the enzymatic activity,CC(C)C[C@H](NC(=O)[C@@H](NC(=O)N[C@@H](Cc1ccccc1)C(=O)O)[C@@H]1CCN=C(N)N1)C(=O)N[C@H](C=O)Cc1ccccc1 [chymostatin]
2,did not increase the enzymatic activity,CC(=O)N[C@@H](CC(C)C)C(=O)N[C@@H](CC(C)C)C(=O)N[C@H](C=O)CCCNC(=N)N [leupeptin]
3,did not increase the enzymatic activity,CC(C)CC(=O)N[C@H](C(=O)N[C@H](C(=O)N[C@@H](CC(C)C)[C@@H](O)CC(=O)N[C@@H](C)C(=O)N[C@@H](CC(C)C)[C@@H](O)CC(=O)O)C(C)C)C(C)C [pepstatin] (Isovaleryl-VV[Sta]A[Sta]-OH)

# Reference: patent US6780622B2, “Diterpene cyclase and methods of use” (Florida Atlantic University, priority 2002, dated 2004)
